Results on 20 compounds are retold here after patent US20240246935A1 (Plexium, Inc., priority 2021, published 2024).

The target of assay [1] is human E3 ligase component cereblon (CRBN) (Homo sapiens (Human), UniProt Q96SW2). In words: Cereblon (CRBN) target engagement, NanoBRET TE Intracellular E3 Ligase Assay in transfected HEK-293T cells. Particulars: read-out: CRBN Binding EC50. The procedure, abridged: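 Live HEK-293T cells co-transfected overnight with NanoLuc-CRBN (CRBN at NanoLuc C-terminus) and DDB1 vectors (10:990 ng) were given CRBN tracer and an 11-point compound series for 2 h at 37° C. BRET read at 450/610 nm with extracellular NanoLuc inhibitor present; IC50 from four-parameter logistic fit.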
(In BRET a luciferase serves as donor, and the signal depends on an acceptor being close.)

The subject of assay [2] is IKZF2 (Helios). In words: IKZF2 reporter degradation assay (HEK 293T IKZF2-mNeonGreen reporter cell line). Type of assay: cell-based, human. Conditions: 1 μM compound, 24 hour incubation, HEK 293T IKZF2-mNeonGreen reporter. The procedure, abridged:
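HEK 293T lines stably expressing each IKZF-GGGGS×3-mNeonGreen-P2A-mScarlet reporter, 4000 cells/well in FluoroBrite medium, treated with compound (≤0.5% DMSO) for 24 h at 37 °C. Imaging measured percent mNeonGreen-positive cells, with mScarlet used for segmentation; DC50 from four-parameter logistic fit.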

Bounds are passed on as bounds.

Chain of human E3 ligase component cereblon (CRBN) (Q96SW2 whole entry): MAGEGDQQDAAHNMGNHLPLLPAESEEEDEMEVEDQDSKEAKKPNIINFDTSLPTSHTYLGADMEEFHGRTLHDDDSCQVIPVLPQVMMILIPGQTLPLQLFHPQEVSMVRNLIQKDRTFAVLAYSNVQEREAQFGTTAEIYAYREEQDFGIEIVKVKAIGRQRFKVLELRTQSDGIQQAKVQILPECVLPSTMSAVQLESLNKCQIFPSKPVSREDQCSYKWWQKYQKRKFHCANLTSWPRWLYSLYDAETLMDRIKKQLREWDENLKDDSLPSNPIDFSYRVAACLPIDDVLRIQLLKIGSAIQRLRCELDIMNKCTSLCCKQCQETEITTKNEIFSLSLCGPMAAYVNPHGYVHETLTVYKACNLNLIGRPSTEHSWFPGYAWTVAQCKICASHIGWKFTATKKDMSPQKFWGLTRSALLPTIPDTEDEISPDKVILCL
Chain of human E3 ligase component cereblon (CRBN) (Q16531 whole entry partner): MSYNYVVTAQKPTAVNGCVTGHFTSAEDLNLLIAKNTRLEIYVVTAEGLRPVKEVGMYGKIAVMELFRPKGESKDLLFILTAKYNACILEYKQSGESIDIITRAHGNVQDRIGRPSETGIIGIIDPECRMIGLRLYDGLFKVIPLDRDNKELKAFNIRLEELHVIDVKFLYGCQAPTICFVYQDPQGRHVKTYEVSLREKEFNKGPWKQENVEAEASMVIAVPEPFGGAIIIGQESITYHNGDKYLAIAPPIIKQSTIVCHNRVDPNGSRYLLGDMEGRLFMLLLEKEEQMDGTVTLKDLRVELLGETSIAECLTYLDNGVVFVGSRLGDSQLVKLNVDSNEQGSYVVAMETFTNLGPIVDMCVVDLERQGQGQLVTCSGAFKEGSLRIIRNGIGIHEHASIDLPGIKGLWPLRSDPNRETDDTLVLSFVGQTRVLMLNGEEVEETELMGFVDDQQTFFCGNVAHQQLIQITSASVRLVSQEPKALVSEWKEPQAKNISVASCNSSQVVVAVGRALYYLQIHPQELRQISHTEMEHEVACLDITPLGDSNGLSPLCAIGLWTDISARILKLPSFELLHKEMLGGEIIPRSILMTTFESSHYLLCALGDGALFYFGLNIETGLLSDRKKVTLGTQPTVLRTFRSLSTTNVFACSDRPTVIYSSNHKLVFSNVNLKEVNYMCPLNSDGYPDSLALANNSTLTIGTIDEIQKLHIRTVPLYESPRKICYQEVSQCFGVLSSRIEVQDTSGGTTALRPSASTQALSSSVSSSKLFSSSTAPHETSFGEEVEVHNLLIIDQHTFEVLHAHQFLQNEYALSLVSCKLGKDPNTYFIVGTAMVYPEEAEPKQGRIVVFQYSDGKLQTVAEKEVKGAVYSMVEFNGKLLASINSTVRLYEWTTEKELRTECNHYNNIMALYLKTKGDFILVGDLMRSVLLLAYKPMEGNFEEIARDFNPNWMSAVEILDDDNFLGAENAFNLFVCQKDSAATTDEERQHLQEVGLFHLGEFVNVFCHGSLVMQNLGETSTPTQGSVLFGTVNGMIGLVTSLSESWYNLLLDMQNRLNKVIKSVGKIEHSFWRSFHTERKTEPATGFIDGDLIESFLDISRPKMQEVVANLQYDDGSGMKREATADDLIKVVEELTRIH

The term EC50 denotes the midpoint of the concentration-response curve. `N#Cc1ccc(C2CN([C@H]3CCCC[C@@H]3Oc3ccc4c(c3)CN(C3CCC(=O)NC3=O)C4=O)C2)c(Cl)c1` (single isomer, unassigned) [Compound 48]: in assay [1], the concentration for a half-maximal effect (EC50) stood at 45 nM. Moreover, the “IKZF2 % Degradation @ 1 μM” value in assay [2] was 78.9%.
Consider `N#Cc1ccc(C2CN([C@H]3CCCC[C@@H]3Oc3ccc4c(c3)CN(C3CCC(=O)NC3=O)C4=O)C2)cc1F` (mixture of isomers) [Compound 119, Rac-4-(1-((trans)-2-((2-(2,6-dioxopiperidin-3-yl)-1-oxoisoindolin-5-yl)oxy)cyclohexyl)azetidin-3-yl)-2-fluorobenzonitrile], for which the EC50 in assay [1] was 8 nM. In addition, in assay [2], the “IKZF2 % Degradation @ 1 μM” value is 63.8%.
On to `N#Cc1cc(Cl)ccc1C1CN([C@H]2CCC[C@@H]2Oc2ccc3c(c2)CN(C2CCC(=O)NC2=O)C3=O)C1` (mixture of isomers) [Compound 83, Rac-5-chloro-2-(1-((trans)-2-((2-(2,6-dioxopiperidin-3-yl)-1-oxoisoindolin-5-yl)oxy)cyclopentyl)azetidin-3-yl)benzonitrile], for which the EC50 in assay [1] was found to be 36 nM. Also, the “IKZF2 % Degradation @ 1 μM” value in assay [2] worked out at 48.8%.
Turning to `N#Cc1cc(Cl)ccc1C1CN([C@H]2CCCC[C@H]2Oc2ccc3c(c2)CN(C2CCC(=O)NC2=O)C3=O)C1` (stereo partly drawn) [Compound 40, 5-chloro-2-(1-((1S,2R)-2-((2-(2,6-dioxopiperidin-3-yl)-1-oxoisoindolin-5-yl)oxy)cyclohexyl)azetidin-3-yl)benzonitrile], the EC50 in assay [1] is 11 nM. The “IKZF2 % Degradation @ 1 μM” value in assay [2] was <15%.
On to `O=C1CCC(N2Cc3cc(O[C@H]4CCCC[C@@H]4N4CC(c5ccccc5)C4)c(F)cc3C2=O)C(=O)N1` (single isomer, unassigned) [Compound 53], for which the EC50 in assay [1] stood at 29 nM. Besides, the “IKZF2 % Degradation @ 1 μM” value in assay [2] is reported as 86.9%.
For `N#Cc1ccc(C2CN([C@H]3CCCC[C@H]3Oc3ccc4c(c3)CN(C3CCC(=O)NC3=O)C4=O)C2)c(Cl)c1` (stereo partly drawn) [Compound 49, 3-chloro-4-(1-((1S,2R)-2-((2-(2,6-dioxopiperidin-3-yl)-1-oxoisoindolin-5-yl)oxy)cyclohexyl)azetidin-3-yl)benzonitrile], the concentration giving a half-maximal response (EC50) in assay [1] came to 11 nM. In addition, the “IKZF2 % Degradation @ 1 μM” value in assay [2] was <15%.
`N#Cc1ccc(C2CN(C3CCCCC3Oc3ccc4c(c3)CN(C3CCC(=O)NC3=O)C4=O)C2)cc1` (stereo not shown) [Compound 117, 4-(1-(2-((2-(2,6-dioxopiperidin-3-yl)-1-oxoisoindolin-5-yl)oxy)cyclohexyl)azetidin-3-yl)benzonitrile]: in assay [1], the EC50 was 31 nM. Further, the “IKZF2 % Degradation @ 1 μM” value in assay [2] is given as <15%.
Consider `O=C1CCC(N2Cc3c(ccc(O[C@H]4CCCC[C@@H]4N4CC(c5ccccc5)C4)c3Cl)C2=O)C(=O)N1` (single isomer, unassigned) [Compound 41], for which the EC50 in assay [1] is 61 nM. Besides, the “IKZF2 % Degradation @ 1 μM” value in assay [2] was <15%.
For `O=C1CCC(N2Cc3cc(O[C@H]4CCCC[C@@H]4N4CC(c5ccc(F)cc5F)C4)ccc3C2=O)C(=O)N1` (stereo partly drawn) [Compound 57, 3-(5-(((1S,2S)-2-(3-(2,4-difluorophenyl)azetidin-1-yl)cyclohexyl)oxy)-1-oxoisoindolin-2-yl)piperidine-2,6-dione], in that order: 6 nM and 85.8%.
Take `O=C1CCC(N2Cc3cc(OC4CCCCC4N4CC(c5cccc(OC(F)(F)F)c5)C4)ccc3C2=O)C(=O)N1` (stereo not shown) [Compound 67, 3-(1-oxo-5-((2-(3-(3-(trifluoromethoxy)phenyl)azetidin-1-yl)cyclohexyl)oxy)isoindolin-2-yl)piperidine-2,6-dione]: the EC50 in assay [1] was determined as 17 nM. In assay [2], the “IKZF2 % Degradation @ 1 μM” value is listed as 37.8%.
For `N#Cc1ccc(C2CN([C@@H]3CCCC[C@@H]3Oc3ccc4c(c3)CN(C3CCC(=O)NC3=O)C4=O)C2)cc1F` (mixture of isomers) [Compound 122, rac-4-(1-((cis)-2-((2-(2,6-dioxopiperidin-3-yl)-1-oxoisoindolin-5-yl)oxy)cyclohexyl)azetidin-3-yl)-2-fluorobenzonitrile], the EC50 in assay [1] stood at 20 nM. The “IKZF2 % Degradation @ 1 μM” value in assay [2] is on record as <15%.
With `O=C1CCC(N2Cc3cc(O[C@@H]4CCCC[C@@H]4N4CC(c5ccc(C(F)(F)F)cc5)C4)ccc3C2=O)C(=O)N1` (stereo partly drawn) [Compound 59, 3-(1-oxo-5-(((1R,2S)-2-(3-(4-(trifluoromethyl)phenyl)azetidin-1-yl)cyclohexyl)oxy)isoindolin-2-yl)piperidine-2,6-dione], the EC50 in assay [1] was found to be 11 nM. In assay [2], the “IKZF2 % Degradation @ 1 μM” value was found to be 32.7%.
Regarding `O=C1CCC(N2Cc3cc(O[C@H]4CCCC[C@@H]4N4CCC4c4ccccc4)ccc3C2=O)C(=O)N1` (stereo partly drawn) [Compound 55, 3-(1-oxo-5-(((1S,2S)-2-(2-phenylazetidin-1-yl)cyclohexyl)oxy)isoindolin-2-yl)piperidine-2,6-dione], the EC50 in assay [1] worked out at 158 nM. The “IKZF2 % Degradation @ 1 μM” value in assay [2] was 38.1%.
With `N#Cc1ccc(C2CN([C@@H]3CCCC[C@@H]3Oc3ccc4c(c3)CN(C3CCC(=O)NC3=O)C4=O)C2)c(F)c1` (mixture of isomers) [Compound 115, Rac-4-(1-((cis)-2-((2-(2,6-dioxopiperidin-3-yl)-1-oxoisoindolin-5-yl)oxy)cyclohexyl)azetidin-3-yl)-3-fluorobenzonitrile], the 50% effective concentration (EC50) in assay [1] is 12 nM. The “IKZF2 % Degradation @ 1 μM” value in assay [2] is reported as 63.6%.
In the case of `O=C1CCC(N2Cc3cc(O[C@H]4CCC[C@@H]4N4CC(c5ccc(-n6cccn6)cc5)C4)ccc3C2=O)C(=O)N1` (stereo partly drawn) [Compound 73, 3-(5-(((1S,2S)-2-(3-(4-(1H-pyrazol-1-yl)phenyl)azetidin-1-yl)cyclopentyl)oxy)-1-oxoisoindolin-2-yl)piperidine-2,6-dione], in assay [1], the half-maximal effective concentration (EC50) came out at 5 nM. For the same compound, the “IKZF2 % Degradation @ 1 μM” value in assay [2] was found to be 63.6%.
For the compound `N#Cc1cc(F)ccc1C1CN([C@H]2CCCC[C@@H]2Oc2ccc3c(c2)CN(C2CCC(=O)NC2=O)C3=O)C1` (mixture of isomers) [Compound 101, Rac-2-(1-((trans)-2-((2-(2,6-dioxopiperidin-3-yl)-1-oxoisoindolin-5-yl)oxy)cyclohexyl)azetidin-3-yl)-5-fluorobenzonitrile], in assay [1], the EC50 is 33 nM. Moreover, the “IKZF2 % Degradation @ 1 μM” value in assay [2] was 79.2%.
Turning to `O=C1CCC(N2Cc3cc(O[C@H]4CCCC[C@H]4N4CC(c5cccc(C(F)(F)F)c5)C4)ccc3C2=O)C(=O)N1` (mixture of isomers) [Compound 63, Rac-3-(1-oxo-5-(((cis)-2-(3-(3-(trifluoromethyl)phenyl)azetidin-1-yl)cyclohexyl)oxy)isoindolin-2-yl)piperidine-2,6-dione], the EC50 in assay [1] stood at 15 nM. In addition, the “IKZF2 % Degradation @ 1 μM” value in assay [2] turned out to be 44.9%.
For `N#Cc1cc(F)ccc1C1CN([C@H]2CCCC[C@@H]2Oc2ccc3c(c2)CN(C2CCC(=O)NC2=O)C3=O)C1` (single isomer, unassigned) [Compound 44], in that order: 65 nM and 85.6%.
As to `N#Cc1cc(Cl)ccc1C1CN([C@H]2CCCC[C@@H]2Oc2ccc3c(c2)CN(C2CCC(=O)NC2=O)C3=O)C1` (single isomer, unassigned) [Compound 38], the EC50 in assay [1] was 52 nM. Besides, the “IKZF2 % Degradation @ 1 μM” value in assay [2] is listed as 84.9%.
Regarding “Rac-3-(5-(((trans)-2-(3-hydroxy-3-phenylazetidin-1-yl)cyclohexyl)oxy)-1-oxoisoindolin-2-yl)piperidine-2,6-dione [Compound 96]”, the EC50 in assay [1] was determined as 42 nM. Further, the “IKZF2 % Degradation @ 1 μM” value in assay [2] is 78.9%.
